Data reported in patent US7790763B2, “Substituted phenyl methanone derivatives” (Hoffmann-La Roche Inc., priority 2005, dated 2010).

Target: T1, mGlyT-1b (Mus musculus, UniProt P28571)
T1 construct: host or cells: Flp-in-CHO cells, stably transfected
T1 sequence (P28571 1-651 isoform P28571-2): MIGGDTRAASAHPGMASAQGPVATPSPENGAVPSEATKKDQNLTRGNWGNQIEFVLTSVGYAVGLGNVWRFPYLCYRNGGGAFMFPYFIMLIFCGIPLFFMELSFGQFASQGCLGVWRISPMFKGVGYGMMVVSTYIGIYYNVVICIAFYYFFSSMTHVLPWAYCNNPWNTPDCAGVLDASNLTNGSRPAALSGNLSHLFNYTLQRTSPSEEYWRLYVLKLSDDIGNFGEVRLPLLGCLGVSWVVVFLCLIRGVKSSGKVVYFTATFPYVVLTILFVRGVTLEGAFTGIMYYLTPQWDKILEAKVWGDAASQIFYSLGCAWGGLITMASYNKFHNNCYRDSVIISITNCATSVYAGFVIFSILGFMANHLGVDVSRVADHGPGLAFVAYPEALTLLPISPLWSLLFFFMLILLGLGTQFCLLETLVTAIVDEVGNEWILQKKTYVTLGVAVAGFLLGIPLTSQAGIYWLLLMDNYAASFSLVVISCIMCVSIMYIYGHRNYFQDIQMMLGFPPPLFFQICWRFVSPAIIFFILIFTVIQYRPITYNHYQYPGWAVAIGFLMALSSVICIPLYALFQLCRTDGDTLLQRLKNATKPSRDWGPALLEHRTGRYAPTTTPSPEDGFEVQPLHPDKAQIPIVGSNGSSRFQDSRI
Assay: Glycine uptake inhibition assay (mGlyT-1b)
Format: cell-based
Conditions: [3H]-glycine uptake, Flp-in-CHO cells transfected with mGlyT-1b cDNA, 20 min preincubation at 22° C.; read-out: IC50 (μM) at GlyT-1
Protocol: DMEM complete medium: Nutrient mixture F-12 (Gibco Life-technologies), fetal bovine serum (FBS) 5%, (Gibco life technologies), Penicillin/Streptomycin1% (Gibco life technologies), Hygromycin 0.6 mg/ml (Gibco life technologies), Glutamine 1 mM Gibco life technologies)
Uptake buffer (UB): 150 mM NaCl, 10 mM Hepes-Tris, pH 7.4, 1 mM CaCl2, 2.5 mM KCl, 2.5 mM MgSO4, 10 mM (+) D-glucose. Flp-in™-CHO (Invitrogen Cat n° R758-07)cells stably transfected with mGlyT1b cDNA.
Glycine Uptake Inhibition Assay (mGlyT-1b)
On day 1 mammalian cells, (Flp-in™-CHO), transfected with mGlyT-1b cDNA, were plated at the density of 40,000 cells/well in complete F-12 medium, without hygromycin in 96-well culture plates. On day 2, the medium was aspirated, and the cells were washed twice with uptake buffer (UB). The cells were then incubated for 20 min at 22° C. with either (i) no potential competitor, (ii) 10 mM non-radioactive glycine, (iii) a concentration of a potential inhibitor. A range of concentrations of the potential inhibitor was used to generate data for calculating the concentration of inhibitor resulting in 50% of the effect (e.g. IC50, the concentration of the competitor inhibiting glycine uptake of 50%). A solution was then immediately added containing [^3H]-glycine 60 nM (11-16 Ci/mmol) and 25 μM non-radioactive glycine. The plates were incubated with gentle shaking, and the reaction was stopped by aspiration of the mixture and washing (three times) with ice-cold UB. The cells were lysed with scintillation liquid, shaken 3 hours and the radioactivity in the cells was counted using a scintillation counter.

IC50 [µM] | Compound
0.55 | CC(C)Oc1ccc(S(C)(=O)=O)cc1C(=O)N1CCC(Oc2ccc(C(F)(F)F)cc2)C1 (racemic) [Example 13, Rac-(2-Isopropoxy-5-methanesulfonyl-phenyl)-[3-(4-trifluoromethyl-phenoxy)-pyrrolidin-1-yl]-methanone]
0.87 | CC(C)Oc1ccc(S(C)(=O)=O)cc1C(=O)N1CC(Oc2ccc(C(F)(F)F)cc2)C1 [Example 21, (2-Isopropoxy-5-methanesulfonyl-phenyl)-[3-(4-trifluoromethyl-phenoxy)-azetidin-1-yl]-methanone]
0.7 | CC(C)Oc1ccc(S(C)(=O)=O)cc1C(=O)N1CC(Oc2cccc(C(F)(F)F)c2)C1 [Example 22, (2-Isopropoxy-5-methanesulfonyl-phenyl)-[3-(3-trifluoromethyl-phenoxy)-azetidin-1-yl]-methanone]
0.84 | C[C@@H](Oc1ccc(S(C)(=O)=O)cc1C(=O)N1CC(Oc2ccc(C(F)(F)F)cc2)C1)C(F)(F)F [Example 24, [5-Methanesulfonyl-2-((R)-2,2,2-trifluoro-1-methyl-ethoxy)-phenyl]-[3-(4-trifluoromethyl-phenoxy)-azetidin-1-yl]-methanone]

The remaining lines, values behind:

Compound | IC50 [µM]
CC(C)Oc1ccc(S(C)(=O)=O)cc1C(=O)N1CCC(Oc2ccc3ccccc3c2)C1 (racemic) [Example 18, Rac-(2-Isopropoxy-5-methanesulfonyl-phenyl)-[3-(naphthalen-2-yloxy)-pyrrolidin-1-yl]-methanone] | 0.87
CC(C)Oc1ccc(S(C)(=O)=O)cc1C(=O)N1CCC(Oc2ccc([N+](=O)[O-])cc2)CC1 [Example 4, (2-Isopropoxy-5-methanesulfonyl-phenyl)-[4-(4-nitro-phenoxy)-piperidin-1-yl]-methanone] | 1
CC(=O)c1ccc(OC2CCN(C(=O)c3cc(S(C)(=O)=O)ccc3OC(C)C)CC2)c(F)c1 [Example 5, 1-{3-Fluoro-4-[1-(2-isopropoxy-5-methanesulfonyl-benzoyl)-piperidin-4-yloxy]-phenyl}-ethanone] | 0.93
CC(C)Oc1ccc(S(C)(=O)=O)cc1C(=O)N1CCC(Oc2cc(C(F)(F)F)ccc2F)CC1 [Example 8, [4-(2-Fluoro-5-trifluoromethyl-phenoxy)-piperidin-1-yl]-(2-isopropoxy-5-methanesulfonyl-phenyl)-methanone] | 0.63
C[C@H](Oc1ccc(S(C)(=O)=O)cc1C(=O)N1CC(Oc2ccc(C(F)(F)F)cc2)C1)C(F)(F)F [Example 23, [5-Methanesulfonyl-2-((S)-2,2,2-trifluoro-1-methyl-ethoxy)-phenyl]-[3-(4-trifluoromethyl-phenoxy)-azetidin-1-yl]-methanone] | 0.39
CS(=O)(=O)c1ccc(N2CCOCC2)c(C(=O)N2CCC(Oc3ccc(C(F)(F)F)cc3)C2)c1 (centres unmarked) [Example 25, (5-Methanesulfonyl-2-morpholin-4-yl-phenyl)-[3-(4-trifluoromethyl-phenoxy)-pyrrolidin-1-yl]-methanone] | 0.078
CNS(=O)(=O)c1ccc(OC2CCCC2)c(C(=O)N2CCC(Oc3ccc(C(F)(F)F)cc3)C2)c1 (centres unmarked) [Example 26, 4-Cyclopentyloxy-N-methyl-3-[3-(4-trifluoromethyl-phenoxy)-pyrrolidine-1-carbonyl]-benzenesulfonamide] | 0.109
